The subject of test [1] is SPI1 type III protein secretion of SopE'-'Bla by Salmonella enterica. Kind of test: Primary assay: Type III protein secretion of the chimeric SopE'-'Bla polypeptide by Salmonella enterica. The class given is cell-based. To be noted: read-out: SopE IC50(uM). The text has this: Primary assay: Type III protein secretion of the chimeric SopE′-′Bla polypeptide by Salmonella enterica. This procedure is a cell-based assay that measures the type III-dependent secretion by Salmonella enterica of a plasmid-encoded chimeric polypeptide whose synthesis can be regulated, and which is endowed with an enzymatic activity that can be monitored […] by hydrolysis of a substrate that is unable to penetrate into the bacterial cytoplasm within the time constraints of the reaction. Thus, the colorimetric reaction is not influenced by SopE′-′Bla polypeptide in the bacterial cytoplasm. Instead, it effectively measures the amount of polypeptide that has been secreted from the S. enterica cytoplasm to the extracellular medium via type III system protein secretion.
The SopE′-′Bla recombinant polypeptide consists of two functionally distinct domains spliced together. The N-terminus domain is encoded by a polynucleotide region specifying the signal for type III secretion of the SopE polypeptide of S. enterica, an effector of the SPI1 type III protein secretion system. The C-terminus domain of SopE′-′Bla consists of a 263 amino acid peptide sequence that corresponds to the TEM-1 β-lactamase expressed by plasmid pBR322 but without its N-terminal signal sequence. The TEM-1 β-lactamase part of the SopE′-′Bla chimeric polypeptide is used as a reporter enzyme. It is capable of hydrolyzing nitrocefin resulting in a product whose accumulation can be monitored by colorimetric detection. The secretion of the SopE′-′Bla chimeric polypeptide from the cytoplasm to the extracellular medium is dependent on type III protein secretion.
For this procedure, cells grown under conditions known to favor a functional SPI1 secretion system are induced for expression of the SopE′-′Bla protein and grown either in the presence or in the absence of putative inhibitors for determined time. Nitrocefin is then added to the various cultures and its hydrolysis are used for quantitation. An inhibitor of Type III protein secretion is generally a compound that reduces the signal of the enzymatic reaction by decreasing the amount of SopE′-′Bla secreted into the extracellular medium.

Test [2] deals with SPI1 type III protein secretion of SipB by S. enterica. The experiment in a line: Secondary assay: Type III-dependent protein secretion of the SipB polypeptide by S. enterica. In kind it is cell-based. To be noted: Salmonella enterica, read-out: SipB IC50(uM). On the procedure:
Secondary assay: Type III-dependent protein secretion of the SipB polypeptide by S. enterica. The SipB protein of S. enterica is another effector of the SPI1 type III protein secretion system from S. enterica. In this cell-based procedure, the Type III-dependent secretion of SipB from the bacterial cytoplasm to the extracellular medium was measured through its reactivity with a cognate mouse monoclonal.
Salmonella enterica cells growing either in the presence or in the absence of inhibitors are induced for the production of SipB. Following an established period of growth the cells are sedimented and the amount of SipB present in the supernatant is quantified with a scanning imager following application of immunoblot techniques. Detection may employ an anti-SipB mouse monoclonal antibody (e.g., obtained from Jorge Galan, SUNY at Stony Brook, N.Y.) followed by treatment with commercially available sheep anti-mouse polyclonal antibody conjugated with horseradish peroxidase. Thereafter the membrane is treated with a peroxidase chemiluminescent substrate and exposed to film for an appropriate exposure time. Inhibition may be measured relative to untreated controls.

For 17 molecules, IC50 results are on record in patent US20050282824A1, “Substituted pyrimidines as inhibitors of bacterial type III protein secretion systems” (priority 2004, published 2005).

A word on the IC50: it is the concentration that gives 50% inhibition.

The structures appear in SMILES notation.

`O=C(N[C@H](Cc1ccc(Cl)cc1)C(=O)O)c1cc(N2CCc3ccccc3C2)nc(-c2cccc(C(F)(F)F)c2)n1` [Compound 7, (R)-3-(4-Chlorophenyl)-2-{[6-(3,4-dihydro-1H-isoquinolin-2-yl)-2-(3-trifluoromethylphenyl)pyrimidine-4-carbonyl]amino}propionic acid]: the IC50 in test [1] was 1.2 µM; in test [2] it was above 100 µM.

On to `O=C(N[C@H](Cc1ccc(Cl)cc1)C(=O)O)c1cc(N2CCc3ccccc3C2)nc(-c2ccc(C(F)(F)F)cc2)n1` [Compound 8, (R)-3-(4-Chlorophenyl)-2-{[6-(3,4-dihydro-1H-isoquinolin-2-yl)-2-(4-trifluoromethylphenyl)pyrimidine-4-carbonyl]amino}propionic acid], for which the IC50 in test [1] was 2 µM; in test [2] it was above 100 µM.

On to `N#Cc1ccc(-c2nc(C(=O)N[C@H](Cc3ccc(Cl)cc3)C(=O)O)cc(N3CCc4ccccc4C3)n2)cc1` [Compound 10, (R)-3-(4-Chlorophenyl)-2-{[2-(4-cyanophenyl)-6-(3,4-dihydro-1H-isoquinolin-2-yl)pyrimidine-4-carbonyl]amino}propionic acid], for which the IC50 in test [1] was 4.3 µM; in test [2], above 100 µM.

`O=C(N[C@@H](CSCc1ccccc1)C(=O)O)c1cc(N2CCN(c3ccccc3)CC2)nc(-c2ccc(Cl)c(Cl)c2)n1` [Compound 20, (R)-3-Benzylsulfanyl-2-{[2-(3,4-dichlorophenyl)-6-(4-phenyl-piperazin-1-yl)-pyrimidine-4-carbonyl]amino}propionic acid]: the values for the IC50 in test [1] and in test [2] were 2.1 µM and above 100 µM, respectively.

As for `O=C(N[C@@H](COCc1ccccc1)C(=O)O)c1cc(N2CCCCC2)nc(N2CCC(c3ccccc3)CC2)n1` [Compound 28, (S)-3-Benzyloxy-2-{[2-(4-phenylpiperidin-1-yl)-6-piperidin-1-yl-pyrimidine-4-carbonyl]amino}propionic acid], the figures for the IC50 in test [1] and in test [2] were 5.2 µM and 18.5 µM, respectively.

Take `CC1CCN(c2cc(C(=O)N[C@@H](CSCc3ccccc3)C(=O)O)nc(-c3ccc(Oc4ccccc4)cc3)n2)CC1` [Compound 37, (R)-3-Benzylsulfanyl-2-{[6-(4-methylpiperidin-1-yl)-2-(4-phenoxyphenyl)-pyrimidine-4-carbonyl]amino}propionic acid]: the IC50 was 1.7 µM in test [1] and above 100 µM in test [2].

For the molecule `CN1CCN(c2nc(C(=O)N[C@@H](CSCc3ccccc3)C(=O)O)cc(N3CCN(c4nccc(C(F)(F)F)n4)CC3)n2)CC1` [Compound 44, (R)-3-Benzylsulfanyl-2-({2-(4-methyl-piperazin-1-yl)-6-[4-(4-trifluoromethyl-pyrimidin-2-yl)piperazin-1-yl]pyrimidine-4-carbonyl}amino)propionic acid], the IC50 in test [1] was 85 µM; in test [2] it was above 100 µM.

`CC1CCN(c2nc(C(=O)N[C@@H](CSCc3ccccc3)C(=O)O)cc(N3CCN(c4nccc(C(F)(F)F)n4)CC3)n2)CC1` [Compound 46, (R)-3-Benzylsulfanyl-2-({2-(4-methylpiperidin-1-yl)-6-[4-(4-trifluoromethyl-pyrimidin-2-yl)piperazin-1-yl]pyrimidine-4-carbonyl}amino)propionic acid]: the IC50 was 3.4 µM in test [1] and 10.6 µM in test [2].

In the case of `CN(C)c1ccc(-c2nc(C(=O)N[C@@H](CSCc3ccccc3)C(=O)O)cc(N3CCN(c4nccc(C(F)(F)F)n4)CC3)n2)cc1` [Compound 50, (R)-3-Benzylsulfanyl-2-({2-(4-dimethylaminophenyl)-6-[4-(4-trifluoromethyl-pyrimidin-2-yl)piperazin-1-yl]pyrimidine-4-carbonyl}amino)propionic acid], the IC50 in test [1] was 20.1 µM; in test [2], above 100 µM.

Take `O=C(N[C@@H](CSCc1ccccc1)C(=O)O)c1cc(N2CCN(c3nccc(C(F)(F)F)n3)CC2)nc(-c2ccc([N+](=O)[O-])cc2)n1` [Compound 52, (R)-3-Benzylsulfanyl-2-({2-(4-nitrophenyl)-6-[4-(4-trifluoromethylpyrimidin-2-yl)-piperazin-1-yl]pyrimidine-4-carbonyl}amino)propionic acid]: the IC50 in test [1] is 10.4 µM; in test [2], 15 µM.

Turning to `O=C(N[C@@H](COCc1ccccc1)C(=O)O)c1cc(N2CCN(c3nccc(C(F)(F)F)n3)CC2)nc(-c2ccc(F)cc2)n1` [Compound 54, (S)-3-Benzyloxy-2-({2-(4-fluorophenyl)-6-[4-(4-trifluoromethylpyrimidin-2-yl)-piperazin-1-yl]pyrimidine-4-carbonyl}amino)propionic acid], the IC50 in test [1] is 1.3 µM; in test [2], 2.7 µM.

For the molecule `O=C(N[C@@H](CSCc1ccccc1)C(=O)O)c1cc(N2CCN(c3nccc(C(F)(F)F)n3)CC2)nc(-c2ccc(F)cc2)n1` [Compound 55, (R)-3-Benzylsulfanyl-2-({2-(4-fluorophenyl)-6-[4-(4-trifluoromethylpyrimidin-2-yl)-piperazin-1-yl]pyrimidine-4-carbonyl}amino)propionic acid], the IC50 in test [1] was determined as 2.4 µM; in test [2] it was 20.5 µM.

With `O=C(N[C@@H](COCc1ccccc1)C(=O)O)c1cc(N2CCN(c3nccc(C(F)(F)F)n3)CC2)nc(-c2cccs2)n1` [Compound 57, (S)-3-Benzyloxy-2-({2-thiophen-2-yl-6-[4-(4-trifluoromethylpyrimidin-2-yl)-piperazin-1-yl]pyrimidine-4-carbonyl}amino)propionic acid], the IC50 in test [1] was 28.7 µM; in test [2], 13.3 µM.

`O=C(N[C@@H](CSCc1ccccc1)C(=O)O)c1cc(N2CCN(c3nccc(C(F)(F)F)n3)CC2)nc(-c2cccs2)n1` [Compound 58, (R)-3-Benzylsulfanyl-2-({2-thiophen-2-yl-6-[4-(4-trifluoromethylpyrimidin-2-yl)-piperazin-1-yl]pyrimidine-4-carbonyl}amino)propionic acid]: the IC50 was found to be 4.5 µM in test [1] and 10.6 µM in test [2].

For `O=C(NC(Cc1ccc(Cl)cc1)C(=O)O)c1cc(N2CCN(c3nccc(C(F)(F)F)n3)CC2)nc(-c2cccs2)n1` (stereo not shown) [Compound 59, 3-(4-Chlorophenyl)-2-({2-thiophen-2-yl-6-[4-(4-trifluoromethylpyrimidin-2-yl)-piperazin-1-yl]pyrimidine-4-carbonyl}amino)propionic acid], the IC50 in test [1] turned out to be 1.8 µM; in test [2] it was 17.1 µM.

Consider `O=C(NC(Cc1ccc(Cl)cc1)C(=O)O)c1cc(N2CCN(c3nccc(C(F)(F)F)n3)CC2)nc(-c2ccoc2)n1` (stereo not shown) [Compound 62, 3-(4-Chlorophenyl)-2-({2-furan-3-yl-6-[4-(4-trifluoromethylpyrimidin-2-yl)-piperazin-1-yl]pyrimidine-4-carbonyl}amino)propionic acid], for which the IC50 turned out to be 5.4 µM in test [1] and 12.6 µM in test [2].

With `C=C(NC(=O)c1cc(N2CCN(c3nccc(C(F)(F)F)n3)CC2)nc(-c2ccoc2)n1)C(=O)O` [Compound 63, 2-({2-Furan-3-yl-6-[4-(4-trifluoromethylpyrimidin-2-yl)piperazin-1-yl]pyrimidine-4-carbonyl}amino)acrylic acid], the IC50 in test [1] is 21.4 µM; in test [2] it was above 100 µM.
